Measurements: patent publication US20260306460A1, “COMPOSITION FOR REMOVING AND INHIBITING SENESCENT CELLS, AND USES THEREOF” (LIFECEUTIX CO., LTD., priority 2023, published 2026)
“And” between values parts separate entries of the source, which are not always exact repeats. Equal entries are not always repeated. Where two headings read alike, the source gives them in different places.

Assays:
[1] = system: HMGN1 secreted from senescent A549 cells; assay: HMGN1 secretion (ELISA) from senescent A549 cancer cells, Example 12; format: cell-based, human; details: senescent untreated = 100%; 30 μM; 90 μM for LX-305, 905, 1302, 1601, 1603, 2003, 2702, 2901, 3106; 270 μM for LX-1103, 2005, 2007;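 further: A549 cells made senescent by doxorubicin exposure, with DMSO-treated cells serving as the non-senescent control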
Description: Cells were treated with doxorubicin or control (DMSO) and cultured.

[2] = system: naturally aged C57BL6J mice; assay: Frailty (open field, wire hanging, grip strength, muscle and fat tissue) in naturally aged mice, Example 21-7, Table 23; format: in vivo, mouse; details: for Fat Mass (g): inguinal and epididymal fat, untreated aged 0.82 (±0.19); for Muscle Mass (g): quadriceps and gastrocnemius, untreated aged 0.64 (±0.06); for Grip Sterenght Test Strength (%) / Open Field Test Time in Center (%) / Wire Hanging Test Time (%): untreated aged = 100%
Description: (§1) 22-month-old female C57BL6J mice (KRIBB Laboratory Animal Resource Center) were acclimated to the experimental environment for one week, after which the aged mice were randomly assigned to experimental and control groups. Eight-week-old, non-aged mice served as controls. LX-403 was mixed in a 10% ethanol solution of PEG400 and administered orally at a concentration of 25 mg/kg daily for 21 days, or administered to the skin, joints, or eyes at a concentration of 1 μM. LX-1801 was mixed in distilled water with 4% DMSO, 30% PEG300, and 5% Tween80 and administered to the skin, joints, or eyes at a concentration of 0.4 μM daily for 21 days. LX-2001 was mixed in PBS and administered to the skin, joints, or eyes at a concentration of […] daily for 21 days. LX-2002 was mixed in distilled water with 4% DMSO, 30% PEG300, and 5% Tween80 and administered to the skin, joints, or eyes at a concentration of 2 μM daily for 21 days. […] LX-2005 was mixed in distilled water with 4% DMSO, 30% PEG300, and 5% Tween80 and administered to the skin, joints, or eyes at a concentration of 90 μM daily for 21 days. LX-2007 was mixed in distilled water with 4% DMSO, 30% PEG300, and 5% Tween80 and administered to the skin, joints, or eyes at a concentration of 90 μM daily for 21 days. […] LX-3002 was mixed in distilled water with 4% DMSO, 30% PEG300, and 5% Tween80 and administered orally at a concentration of 10 mg/kg daily for 21 days. […] LX-5411 was mixed in 5% PBS and administered orally at a concentration of 10 mg/kg daily for 21 days or administered to the skin, joints, or eyes at a concentration of 3 μM. LX-5701 was mixed in PBS and administered orally at a concentration of 360 mg/kg daily for 21 days. LX-6807 was mixed in saline and administered intraperitoneally at a concentration of 1 mg/kg daily for 21 days. LX-2101 or LX-2102 was mixed in PBS solution with 5% DMSO and administered intraperitoneally at a concentration of 20 mg/kg or 10 mg/kg, respectively, daily for 21 days. The control group received only the solution in the same volume. After the end of drug administration, the methods described in each example below were performed.
To analyze frailty due to aging in mice, an activity test (open field test), an endurance test (wire hanging test), and a muscle strength and grip strength test (grip strength test) were performed using the same method as in Example 7-7 of WO2023-085787 A1. The table below quantitatively represents the results of activity, endurance, muscle strength, and grip strength, which are criteria for assessing frailty, under conditions in which aging was induced and the test compound was not administered or administered. The amount of each evaluation after aging was calculated as 100% and compared with the amount of each evaluation after treatment with the drug of the present invention.

[3] = system: naturally aged C57BL6J mice; assay: Skin aging (dermal thickness, COL1A1 and SDF1 mRNA, hair loss) in naturally aged mice, Example 21-10, Table 25; format: in vivo, mouse; details: for Dermal Thickness (μm): mouse, in vivo
Description: as §1
Frozen sections of skin tissue were stained with Hematoxylin/Eosin (H/E), and the dermal thickness was observed under an optical microscope. Furthermore, the mRNA levels of collagen (COL1A1), a skin component, and SDF1, which suppresses age-related pigmentation, were measured using qRT-PCR as described in Example 7-2 of WO2023-085787 A1. […] Furthermore, biweekly examinations were performed to assess the onset of hair loss due to aging.

[4] = system: doxorubicin-induced aged C57BL6J mice; assay: Hair loss area in doxorubicin-aged mice, Example 22-11, Table 40; format: in vivo, mouse
Description: Eight-week-old male C57BL6J mice (KRIBB Laboratory Animal Resource Center) were acclimated to the experimental environment for one week. Afterwards, the anticancer agent doxorubicin was administered intraperitoneally at a concentration of 10 mg/kg, inducing aging for more than 10 days. The aging-induced mice were randomly assigned to experimental and control groups. LX-403 was mixed with a 10% ethanol solution of PEG400 and administered orally at a concentration of 25 mg/kg or intradermally at a concentration of 1 μM for 21 days. LX-1801 was mixed in distilled water with 4% DMSO, 30% PEG300, and 5% Tween80 and administered intradermally at a concentration of 0.4 μM daily for 21 days. LX-2001 was mixed in PBS and administered intradermally at a concentration of 2 μM daily for 21 days. LX-2002 was mixed in distilled water with 4% DMSO, 30% PEG300, and 5% Tween80 and administered intradermally at a concentration of 2 μM daily for 21 days. […] LX-2005 was mixed in distilled water with 4% DMSO, 30% PEG300, and 5% Tween80 and administered intradermally at a concentration of 90 μM daily for 21 days. LX-2007 was mixed in distilled water with 4% DMSO, 30% PEG300, and 5% Tween80 and administered intradermally at a concentration of 90 μM daily for 21 days. […] LX-3002 was mixed in distilled water with 4% DMSO, 30% PEG300, and 5% Tween80 and administered orally at a concentration of 10 mg/kg daily for 21 days. […] LX-5411 was mixed in 5% phosphate-buffered saline (PBS) and administered orally at a concentration of 10 mg/kg daily for 21 days or intradermally at a concentration of 3 μM. LX-5701 was mixed in PBS and administered orally at a concentration of 360 mg/kg daily for 21 days. LX-6807 was mixed in saline and administered intraperitoneally at a concentration of 1 mg/kg daily for 21 days. The control group received only the solution in the same volume. After the end of drug administration, the methods described in each example below were performed.
Alopecia is one of the most troubling side effects of chemotherapy, for which there is currently no treatment. Hair loss in mice induced to age by the anticancer drug was quantified using imaging software such as ImageJ (NIH) from digital photographs taken using a fixed camera position and magnification.

[5] = naturally aged mice, untreated aged = 100
[6] = skin, naturally aged mice, untreated aged = 1
[7] = doxorubicin-induced aged mice, untreated 100 (±15.4)

Structure (SMILES) | HMGN1 [1] | Fat Mass (g) [2] | Muscle Mass (g) [2] | Grip Sterenght Test Strength (%) [2] | Open Field Test Time in Center (%) [2] | Wire Hanging Test Time (%) [2] | Dermal Thickness (μm) [3] | Relative area of hair loss (%) [3, 5] | Col1a1 mRNA (Fold) [3, 6] | SDF1 mRNA (fold) [3, 6] | Col1a1 mRNA (Fold) ([3]; topical) | Relative area of hair loss (%) ([3]; topical) | SDF1 mRNA (fold) ([3]; topical) | Relative area of hair loss [4] | Relative area of hair loss [4, 7]
CC1(C)CC[C@]2(NC(=O)C(C)(F)F)CC[C@]3(C)[C@H](C(=O)C=C4[C@@]5(C)C=C(C#N)C(=O)C(C)(C)[C@@H]5CC[C@]43C)[C@@H]2C1 [LX-2101, Omaveloxolone] | 297% | 1.15 (±0.09) g | 0.72 (±0.05) g | 121 (±4.1) % | 145 (±10.2) % | 117 (±3.8) % | 224 (±11.1) μm and 251 (±15.1) μm | 82 (±8.9) % | 2.5 (±0.2) Fold | 1.4 (±0.3) fold | 2.2 (±0.2) Fold | 79 (±4.1) % | 1.9 (±0.3) fold | 79 (±3.9) % | –
O=C1C2CCN(CC2)C1CNC(=O)C(F)(F)F (stereo not shown) [LX-5701] | – | 0.88 (±0.1) g | 0.66 (±0.1) g | 119 (±3.8) % | 259 (±38.6) % | 141 (±7.3) % | 239 (±16.4) μm | 71 (±8.4) % | 1.9 (±0.1) Fold | 1.7 (±0.3) fold | – | – | – | – | 67 (±17.8) %
Cc1cccc([C@H](C)c2cnc[nH]2)c1C [LX-6807, Dexmedetomidine] | – | 1.08 (±0.15) g | 0.74 (±0.04) g | 128 (±6.2) % | 269 (±13.3) % | 156 (±16.4) % | 267 (±22.4) μm | 72 (±3.8) % | 3.2 (±0.2) Fold | 2.1 (±0.2) fold | – | – | – | – | 59 (±3.2) %
